The supplement of paper PMC10011410

Columns and labels:
U-2 OS [1] = assay: relative cell count vs DMSO (cell painting) (fraction of DMSO control); higher = more cells remaining (less cytotoxic); conditions: 24 h
Procedure: (§1)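 Cell painting in U-2 OS cells (384-well, about 1,500 cells per well), compound exposure 24 h, usually six 2-fold concentrations from 20 to 0.625 uM (some compounds higher or lower). Relative cell count is the cell number per well relative to DMSO wells. Activity score is the Mahalanobis distance of the morphological profile from DMSO control wells. Mean of four technical replicate plates.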

U-2 OS [2] = assay: cell painting activity score (Mahalanobis distance from DMSO wells); higher = stronger morphological phenotype; conditions: 24 h
Procedure: as §1

O=C1Cc2c([nH]c3ccc(Br)cc23)-c2ccccc2N1
Conditions | cell painting activity score, U-2 OS [2] | relative cell count, U-2 OS [1]
0.625 µM | 7.76 | 0.977
1.25 µM | 10.8 | 0.959
2.5 µM | 12.7 | 0.911
5 µM | 13.7 | 0.835
10 µM | 14.7 | 0.557
20 µM | 13.6 | 0.164

COC1=C(OC)C(=O)c2ccccc2C1=O
Conditions | cell painting activity score, U-2 OS [2] | relative cell count, U-2 OS [1]
0.625 µM | 7.97 | 0.99
1.25 µM | 8.63 | 0.895
2.5 µM | 10.7 | 0.81
5 µM | 18.9 | 0.489
10 µM | 21.2 | 0.46
20 µM | 24.7 | 0.149

CCc1c2c(nc3ccc(O)cc13)-c1cc3c(c(=O)n1C2)COC(=O)[C@]3(O)CC
Conditions | cell painting activity score, U-2 OS [2] | relative cell count, U-2 OS [1]
0.625 µM | 12 | 0.523
1.25 µM | 12.3 | 0.525
2.5 µM | 12.7 | 0.515
5 µM | 12.3 | 0.467
10 µM | 12.1 | 0.446
20 µM | 14.9 | 0.482

[Cl][Pt+2][Cl].[NH2-].[NH2-]
Conditions | cell painting activity score, U-2 OS [2] | relative cell count, U-2 OS [1]
0.2062 µM | 5.52 | 0.954
0.4124 µM | 4.94 | 0.964
0.825 µM | 3.93 | 0.902
1.65 µM | 5.77 | 0.701
3.3 µM | 3.26 | 0.937
6.6 µM | 9.14 | 0.666

N#CC(C#N)=NNc1cccc(Cl)c1
Conditions | cell painting activity score, U-2 OS [2] | relative cell count, U-2 OS [1]
0.625 µM | 5.76 | 0.975
1.25 µM | 5.02 | 0.949
2.5 µM | 7.58 | 0.98
5 µM | 9.31 | 0.897
10 µM | 13.4 | 0.711
20 µM | 16.2 | 0.491

CCN1C(=O)C=CC1=O
Conditions | cell painting activity score, U-2 OS [2] | relative cell count, U-2 OS [1]
0.625 µM | 4.77 | 0.938
1.25 µM | 5.69 | 0.928
2.5 µM | 7.04 | 0.891
5 µM | 9.18 | 0.724
10 µM | 20.6 | 0.254
20 µM | 26.6 | 0.0684
40 µM | 5.94 | 0.911
80 µM | 6.33 | 0.885

CC(C)(C)C1=CC(=O)C=CC1=O
Conditions | cell painting activity score, U-2 OS [2] | relative cell count, U-2 OS [1]
0.625 µM | 8.46 | 0.952
1.25 µM | 9.82 | 0.904
2.5 µM | 11.5 | 0.867
5 µM | 13.4 | 0.435
10 µM | 20.3 | 0.32
20 µM | 17.6 | 0.124

CC(C)C[C@@H](C=O)NC(=O)[C@@H](CC(C)C)NC(=O)[C@H](CC(C)C)NC(=O)OCc1ccccc1
Conditions | cell painting activity score, U-2 OS [2] | relative cell count, U-2 OS [1]
0.625 µM | 4.19 | 1
1.25 µM | 4.34 | 0.959
2.5 µM | 5.35 | 0.944
5 µM | 5.4 | 0.993
10 µM | 3.89 | 0.986
20 µM | 7.43 | 0.909

CC(C)C[C@@H](C=O)NC(=O)[C@H](CC(C)C)NC(=O)[C@H](CC(C)C)NC(=O)OCc1ccccc1
Conditions | cell painting activity score, U-2 OS [2] | relative cell count, U-2 OS [1]
0.625 µM | 5.55 | 0.974
1.25 µM | 9.38 | 0.824
2.5 µM | 15.5 | 0.479
5 µM | 15.7 | 0.226
10 µM | 16 | 0.124
20 µM | 17.7 | 0.103

O=C(Nc1ccc([N+](=O)[O-])cc1Cl)c1cc(Cl)ccc1O
Conditions | cell painting activity score, U-2 OS [2] | relative cell count, U-2 OS [1]
0.625 µM | 5.54 | 1.13
1.25 µM | 8.61 | 1.05
2.5 µM | 10.3 | 1.06
5 µM | 16 | 0.922
10 µM | 17.7 | 0.808
20 µM | 14.8 | 0.753

CN[C@@H]1C[C@H]2O[C@@](C)([C@@H]1OC)n1c3ccccc3c3c4c(c5c6ccccc6n2c5c31)C(=O)NC4
Conditions | cell painting activity score, U-2 OS [2] | relative cell count, U-2 OS [1]
0.019532 µM | 16.8 | 0.757
0.07812 µM | 19.8 | 0.467
0.3124 µM | 21.2 | 0.294
0.3126 µM | 25.8 | 0.0507
1.25 µM | 24.2 | 0.095
5 µM | 25.5 | 0.127
20 µM | 24.1 | 0.128

CO[C@@H]1[C@H](N(C)C(=O)c2ccccc2)C[C@H]2O[C@]1(C)n1c3ccccc3c3c4c(c5c6ccccc6n2c5c31)C(=O)NC4
Conditions | cell painting activity score, U-2 OS [2] | relative cell count, U-2 OS [1]
0.625 µM | 13.9 | 1.02
1.25 µM | 15.2 | 0.757
2.5 µM | 19.8 | 0.456
5 µM | 22.9 | 0.362
10 µM | 23.7 | 0.347
20 µM | 24.4 | 0.354
